Measured values published in ChEMBL document CHEMBL4043287, “A Structure-Activity Relationship Study of Bitopic N6-Substituted Adenosine Derivatives as Biased Adenosine A1 Receptor Agonists” (J Med Chem, 2018).
Calls of active or inactive are those of the source. No cut-off for these calls is given here.

Experiments:
Adenosine receptor A1 [1] = target: T1, Adenosine receptor A1 (Homo sapiens, UniProt P30542); test: Agonist activity at human A1AR expressed in FlpIn-CHO cells assessed as inhibition of forskolin-stimulated cAMP accumulation preincubated for 10 mins followed by forskolin addition measured after 30 mins by Alphascreen assay; format: functional, cell-based
T1 sequence (P30542 whole entry): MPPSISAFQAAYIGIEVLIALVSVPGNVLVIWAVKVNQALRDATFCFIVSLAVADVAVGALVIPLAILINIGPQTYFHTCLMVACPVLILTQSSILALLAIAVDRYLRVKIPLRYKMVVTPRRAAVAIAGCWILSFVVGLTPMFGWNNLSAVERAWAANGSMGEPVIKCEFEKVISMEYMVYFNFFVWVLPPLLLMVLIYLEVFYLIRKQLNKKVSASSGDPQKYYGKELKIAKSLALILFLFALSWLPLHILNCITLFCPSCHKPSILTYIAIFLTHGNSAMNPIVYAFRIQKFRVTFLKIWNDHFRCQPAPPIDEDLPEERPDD

[2] = target: T2, Adenosine receptor A3 (Homo sapiens) (UniProt P0DMS8); test: Agonist activity at human A3AR expressed in FlpIn-CHO cells assessed as inhibition of forskolin-stimulated cAMP accumulation up to 10 uM preincubated for 10 mins followed by forskolin addition measured after 30 mins by Alphascreen assay; format: functional, cell-based
T2 sequence (whole entry): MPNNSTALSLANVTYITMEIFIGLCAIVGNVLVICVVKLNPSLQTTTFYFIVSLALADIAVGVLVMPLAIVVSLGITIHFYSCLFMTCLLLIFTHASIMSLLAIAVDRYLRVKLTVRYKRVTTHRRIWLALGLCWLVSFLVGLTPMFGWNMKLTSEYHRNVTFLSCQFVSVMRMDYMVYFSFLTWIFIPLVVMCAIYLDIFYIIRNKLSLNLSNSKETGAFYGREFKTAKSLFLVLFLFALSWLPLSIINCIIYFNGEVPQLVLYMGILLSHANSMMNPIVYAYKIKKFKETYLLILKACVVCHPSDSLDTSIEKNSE

[3] = target: T3, Adenosine receptor A2b (Homo sapiens) (UniProt P29275); test: Agonist activity at human A2BAR expressed in FlpIn-CHO cells assessed as […] cAMP accumulation preincubated for 40 mins followed by forskolin addition measured after 30 mins by Alphascreen assay relative to control; format: functional, cell-based
T3 sequence (whole entry): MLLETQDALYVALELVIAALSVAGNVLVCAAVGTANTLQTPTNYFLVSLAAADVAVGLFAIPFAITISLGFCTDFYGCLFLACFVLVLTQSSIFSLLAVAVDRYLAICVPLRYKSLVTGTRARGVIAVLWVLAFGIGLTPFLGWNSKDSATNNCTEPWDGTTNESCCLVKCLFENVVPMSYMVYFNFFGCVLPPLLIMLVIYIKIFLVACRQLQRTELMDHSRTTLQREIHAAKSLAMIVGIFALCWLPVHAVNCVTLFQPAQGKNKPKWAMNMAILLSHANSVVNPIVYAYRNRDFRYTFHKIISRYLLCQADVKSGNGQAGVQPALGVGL

Adenosine receptor A1 [4] = target: T1, Adenosine receptor A1; test: Agonist activity at human A1AR expressed in FlpIn-CHO cells assessed as intracellular calcium mobilization by Fluo-4 dye-based fluorescence assay; format: cell-based
Adenosine receptor A2b = target: T4, Adenosine receptor A2b (Homo sapiens, UniProt P29275); test: Agonist activity at human A2BAR expressed in FlpIn-CHO cells assessed as […] cAMP accumulation preincubated for 40 mins followed by forskolin addition measured after 30 mins by Alphascreen assay; format: functional, cell-based
T4 sequence (P29275 whole entry): T3 sequence (whole entry)

Adenosine receptor A1 [5] = target: T1, Adenosine receptor A1; test: Agonist activity at human A1AR expressed in FlpIn-CHO cells assessed as intracellular calcium mobilization by measuring agonist transduction coefficient by Fluo-4 dye-based fluorescence assay; format: cell-based
Adenosine receptor A2a = Adenosine receptor A2a (Homo sapiens, UniProt P29274); test: Agonist activity at human A2A-AR expressed in FlpIn-CHO cells assessed as inhibition of forskolin-stimulated cAMP accumulation preincubated for 40 mins followed by forskolin addition measured after 30 mins by Alphascreen assay
Adenosine receptor A1 [6] = target: T1, Adenosine receptor A1; test: Agonist activity at human A1AR expressed in FlpIn-CHO cells assessed as intracellular calcium mobilization by Fluo-4 dye-based fluorescence assay relative to control; format: cell-based
Adenosine receptor A3 = target: T5, Adenosine receptor A3 (Homo sapiens, UniProt P0DMS8); test: Agonist activity at human A3AR expressed in FlpIn-CHO cells assessed as inhibition of forskolin-stimulated cAMP accumulation preincubated for 10 mins followed by forskolin addition measured after 30 mins by Alphascreen assay
T5 sequence (P0DMS8 whole entry): T2 sequence (whole entry)

[7] = target: T2, Adenosine receptor A3 (Homo sapiens); test: Agonist activity at human A3AR expressed in FlpIn-CHO cells assessed as inhibition of forskolin-stimulated cAMP accumulation preincubated for 10 mins followed by forskolin addition measured after 30 mins by Alphascreen assay relative to control; format: functional, cell-based

Chain of Adenosine receptor A2a (P29274 whole entry): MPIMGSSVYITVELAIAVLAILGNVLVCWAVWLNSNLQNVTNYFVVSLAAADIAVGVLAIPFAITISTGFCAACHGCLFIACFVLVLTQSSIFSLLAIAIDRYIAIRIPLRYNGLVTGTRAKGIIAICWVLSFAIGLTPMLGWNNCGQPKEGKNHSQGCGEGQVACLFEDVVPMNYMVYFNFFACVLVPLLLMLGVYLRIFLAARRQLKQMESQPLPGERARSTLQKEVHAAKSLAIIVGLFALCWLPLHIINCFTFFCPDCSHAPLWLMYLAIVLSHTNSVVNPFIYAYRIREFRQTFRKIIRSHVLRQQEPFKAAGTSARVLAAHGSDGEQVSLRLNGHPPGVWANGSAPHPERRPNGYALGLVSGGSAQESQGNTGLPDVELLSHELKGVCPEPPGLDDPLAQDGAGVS

Compound	EC50 (Adenosine receptor A1 [1])	inhibition [2]	Emax [3]	EC50 (Adenosine receptor A1 [4])	EC50 (Adenosine receptor A2b)	log(activity) (Adenosine receptor A1 [5])	EC50 (Adenosine receptor A2a)	Emax (Adenosine receptor A1 [6])	EC50 (Adenosine receptor A3)	Emax [7]
Nc1sc(-c2ccc(C(=O)NCCCCCCNc3nc(Cl)nc4c3ncn4[C@@H]3O[C@H](CO)[C@@H](O)[C@H]3O)cc2)c(-c2cccc(C(F)(F)F)c2)c1C(=O)c1ccccc1	224 nM	inactive	39%	135 nM	18.6 nM	6.32	145 nM	20%		
Nc1sc(-c2ccc(C(=O)NCCCCCCCNc3ncnc4c3ncn4[C@@H]3O[C@H](CO)[C@@H](O)[C@H]3O)cc2)c(-c2cccc(C(F)(F)F)c2)c1C(=O)c1ccccc1	22.9 nM		38%	200 nM	468 nM	5.58	4900 nM	28%	331 nM	56%
Nc1cc(-c2cccc(C(F)(F)F)c2)c(-c2ccc(C(=O)NCCCCCCNc3ncnc4c3ncn4[C@@H]3O[C@H](CO)[C@@H](O)[C@H]3O)cc2)s1	38 nM		28%	110 nM	447 nM	6.86	2690 nM	42%	282 nM	58%
Nc1nc(NCCCCCCNC(=O)c2ccc(-c3sc(N)c(C(=O)c4ccccc4)c3-c3cccc(C(F)(F)F)c3)cc2)c2ncn([C@@H]3O[C@H](CO)[C@@H](O)[C@H]3O)c2n1	1350 nM	inactive	43%	257 nM	97.7 nM	6.15	759 nM	34%		
CCNC(=O)[C@H]1O[C@@H](n2cnc3c(N)ncnc32)[C@H](O)[C@@H]1O [NECA]								54%		97%
O=C(NCCCCCCNc1ncnc2c1ncn2[C@@H]1O[C@H](CO)[C@@H](O)[C@H]1O)c1cccc(-c2cc(C(=O)c3ccccc3)cs2)c1	138 nM		27%	87.1 nM	158 nM	6.91	437 nM	39%	407 nM	74%
O=C(NCCCCCCNc1ncnc2c1ncn2[C@@H]1O[C@H](CO)[C@@H](O)[C@H]1O)c1ccc(-c2sccc2-c2cccc(C(F)(F)F)c2)cc1	170 nM		44%	77.6 nM	91.2 nM	7.03	646 nM	49%	347 nM	26%
Nc1sc(-c2ccc(C(=O)NCCCCCCNc3ncnc4c3ncn4[C@@H]3O[C@H](CO)[C@@H](O)[C@H]3O)cc2)c(-c2cccc(C(F)(F)F)c2)c1C(=O)c1ccccc1							2290 nM			
O=C(NCCCCCCNc1ncnc2c1ncn2[C@@H]1O[C@H](CO)[C@@H](O)[C@H]1O)c1cccc(-c2cccs2)c1	234 nM		42%	35.5 nM	17.8 nM	7.38	1320 nM	49%	832 nM	107%
CCNC(=O)[C@H]1O[C@@H](n2cnc3c(NCCCCCCNC(=O)c4ccc(-c5sc(N)c(C(=O)c6ccccc6)c5-c5cccc(C(F)(F)F)c5)cc4)ncnc32)[C@H](O)[C@@H]1O	97.7 nM		38%	56.2 nM	75.9 nM	6.33	56.2 nM	16%	1410 nM	75%
O=C(NCCCCCCNc1ncnc2c1ncn2[C@@H]1O[C@H](CO)[C@@H](O)[C@H]1O)c1ccc(-c2scc(C(=O)c3ccccc3)c2-c2cccc(C(F)(F)F)c2)cc1	110 nM		49%	562 nM	148 nM	5.74	2880 nM	40%	> 1000 nM	
Nc1sc(-c2cccc(C(=O)NCCCCCCNc3ncnc4c3ncn4[C@@H]3O[C@H](CO)[C@@H](O)[C@H]3O)c2)c(-c2cccc(C(F)(F)F)c2)c1C(=O)c1ccccc1	105 nM		43%	93.3 nM	35.5 nM	6.98	148 nM	48%	123 nM	80%
Nc1sc(-c2ccc(C(=O)NCCCCCCNc3ncnc4c3ncn4[C@@H]3O[C@H](CO)[C@@H](O)[C@H]3O)cc2)cc1C(=O)c1ccccc1	41.7 nM		40%	29.5 nM	224 nM	7.43	355 nM	49%	447 nM	85%
CC(=O)Nc1sc(-c2ccc(C(=O)NCCCCCCNc3ncnc4c3ncn4[C@@H]3O[C@H](CO)[C@@H](O)[C@H]3O)cc2)c(-c2cccc(C(F)(F)F)c2)c1C(=O)c1ccccc1	138 nM		44%	891 nM	617 nM	5.02	2340 nM	20%	447 nM	60%
Nc1sc(-c2ccccc2C(=O)NCCCCCCNc2ncnc3c2ncn3[C@@H]2O[C@H](CO)[C@@H](O)[C@H]2O)c(-c2cccc(C(F)(F)F)c2)c1C(=O)c1ccccc1	1290 nM		46%	1350 nM	288 nM	5.74		43%	282 nM	103%
Nc1ccc(-c2cccc(C(=O)NCCCCCCNc3ncnc4c3ncn4[C@@H]3O[C@H](CO)[C@@H](O)[C@H]3O)c2)s1			45%	34.7 nM	60.3 nM	7.4	1070 nM	47%	64.6 nM	72%
Nc1sc(-c2ccc(C(=O)NCCCCCNc3ncnc4c3ncn4[C@@H]3O[C@H](CO)[C@@H](O)[C@H]3O)cc2)c(-c2cccc(C(F)(F)F)c2)c1C(=O)c1ccccc1	95.5 nM		52%	74.1 nM	63.1 nM	6.11	3630 nM	31%	> 1000 nM	
